| SMILES | logP |
| --- | --- |
| CCC1(CC)C(=O)NC(=S)NC1=O | 1.5 |
| CC(C)(C)C1C(=O)NC(=O)NC1=O | 0.28 |
| CCC1(C(C)(C)C)C(=O)NC(=O)NC1=O | 1.38 |
| CC(C)(C)C1(C)C(=O)NC(=O)NC1=O | 0.8 |
| CCCCC1(CCCC)C(=O)NC(=O)NC1=O | 2.7 |
| CC(C)C1(C)C(=O)NC(=O)NC1=O | 0.54 |
| CC(C)C1C(=O)NC(=O)NC1=O | -0.02 |
| CCCC1(CCC)C(=O)NC(=S)NC1=O | 2.66 |
| C=CCC1(C(C)(C)C)C(=O)NC(=O)NC1=O | 1.64 |
| CC(C)(C)C1(Cl)C(=O)NC(=O)NC1=O | 0.82 |
| CCC(C)C1(CC)C(=O)NC(=O)NC1=O (stereo not drawn) | 1.65 |
| CCCC1(CCC)C(=O)NC(=O)NC1=O | 1.75 |
| CC(C)C1(C(C)C)C(=O)NC(=O)NC1=O | 1.56 |

From the OPERA property sets (Mansouri et al. 2018)
